Data published in US11173151B2, “Substituted triazole derivatives and uses thereof” (BAYER AKTIENGESELLSCHAFT, priority 2017, dated 2021).
Read-outs that look alike come from different tables or passages of the source.

Experiments:
human V2 receptor = biological target: T1, human V2 receptor (Homo sapiens, UniProt P30518); test: Cellular in vitro assay for determining vasopressin receptor activity, V2 receptor cell line (CHO, CRE-luciferase); type: cell-based; conditions: CHO cell line transfected with human V2 receptor, [Arg8]-vasopressin at EC50 concentration, read-out: IC50 hV2
T1 construct: expressed in transfected cells; host or cells: CHO K1 (ATCC) expressing firefly luciferase under a CRE-responsive promoter
T1 sequence (P30518 whole entry): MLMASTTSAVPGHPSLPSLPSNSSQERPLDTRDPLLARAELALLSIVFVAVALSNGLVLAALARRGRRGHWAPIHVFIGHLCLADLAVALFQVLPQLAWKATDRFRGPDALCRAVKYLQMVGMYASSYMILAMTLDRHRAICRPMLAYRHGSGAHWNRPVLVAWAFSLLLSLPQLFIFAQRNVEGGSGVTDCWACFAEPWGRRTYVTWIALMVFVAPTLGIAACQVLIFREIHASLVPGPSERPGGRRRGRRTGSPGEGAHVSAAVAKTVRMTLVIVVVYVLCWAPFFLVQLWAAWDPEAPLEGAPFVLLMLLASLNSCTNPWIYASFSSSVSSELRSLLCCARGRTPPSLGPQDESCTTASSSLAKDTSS

human V1a receptor = biological target: T2, human V1a receptor (Homo sapiens, UniProt P37288); test: Cellular in vitro assay for determining vasopressin receptor activity, V1a receptor cell line (CHO, aequorin luminescence); type: cell-based; conditions: for IC50: CHO cell line transfected with human V1a receptor, [Arg]-vasopressin at EC50 concentration, read-out: IC50 hV1a; for ratio IC50 hV2/hV1a: selectivity ratio IC50 hV2 / IC50 hV1a
T2 construct: expressed in transfected cells; host or cells: CHO K1 (ATCC), also stably transfected with a modified aequorin
T2 sequence (P37288 whole entry): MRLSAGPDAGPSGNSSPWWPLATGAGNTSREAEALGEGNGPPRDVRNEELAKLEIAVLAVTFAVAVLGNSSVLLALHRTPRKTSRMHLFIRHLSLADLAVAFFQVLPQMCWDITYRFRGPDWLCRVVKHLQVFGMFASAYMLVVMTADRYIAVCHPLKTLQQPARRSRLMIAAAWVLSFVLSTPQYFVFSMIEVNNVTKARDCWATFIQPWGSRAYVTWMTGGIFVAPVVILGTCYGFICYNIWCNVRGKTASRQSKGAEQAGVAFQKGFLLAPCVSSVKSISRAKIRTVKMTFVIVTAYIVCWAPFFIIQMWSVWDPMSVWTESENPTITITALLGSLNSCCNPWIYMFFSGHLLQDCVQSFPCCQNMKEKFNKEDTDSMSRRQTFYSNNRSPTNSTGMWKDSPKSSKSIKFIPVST
Procedure, shortened: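 CHO K1/aequorin cells, coelenterazine 5 μg/ml o/n; cpd 10 min; [Arg]-vasopressin at EC50; luminescence read immediately; IC50.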

| SMILES | IC50 (human V2 receptor; 3 hours) | IC50 (human V1a receptor) | ratio IC50 hV2/hV1a (human V1a receptor) | IC50 (human V2 receptor) |
| --- | --- | --- | --- | --- |
| O=C(Nc1c(F)cc(F)cc1F)c1ccccc1-n1cnc(Cn2nc(-c3ccc(Cl)cc3)n(C[C@H](O)C(F)(F)F)c2=O)n1 [Example 317, 2-[3-({3-(4-Chlorophenyl)-5-oxo-4-[(2S)-3,3,3-trifluoro-2-hydroxypropyl]-4,5-dihydro-1H-1,2,4-triazol-1-yl}methyl)-1H-1,2,4-triazol-1-yl]-N-(2,4,6-trifluorophenyl)benzamide] | 285 nM | 2.3 nM | 123.9 |  |
| O=C(Nc1ccc(Cl)nc1)c1ccccc1-n1cnc(Cn2nc(-c3ccc(Cl)cc3)n(C[C@H](O)C(F)(F)F)c2=O)n1 [Example 226, 2-[3-({3-(4-Chlorophenyl)-5-oxo-4-[(2S)-3,3,3-trifluoro-2-hydroxypropyl]-4,5-dihydro-1H-1,2,4-triazol-1-yl}methyl)-1H-1,2,4-triazol-1-yl]-N-(6-chloropyridin-3-yl)benzamide] | 7.45 nM | 1.3 nM | 5.7 |  |
| O=C(NC1CC(F)(F)C1)c1ncccc1-n1cnc(Cn2nc(-c3ccc(Cl)cc3)n(C[C@H](O)C(F)(F)F)c2=O)n1 [Example 439, 3-[3-({3-(4-Chlorophenyl)-5-oxo-4-[(2S)-3,3,3-trifluoro-2-hydroxypropyl]-4,5-dihydro-1H-1,2,4-triazol-1-yl}methy)-1H-1,2,4-triazol-1-yl]-N-(3,3-difluorocyclobutyl)pyridine-2-carboxamide] |  | 53.5 nM | 24.0 | 1280 nM |
| CCN(C(=O)c1ccccc1-n1cnc(Cn2nc(-c3ccc(Cl)cc3)n(C[C@H](O)C(F)(F)F)c2=O)n1)C(C)C [Example 349, 2-[3-({3-(4-Chlorophenyl)-5-oxo-4-[(2S)-3,3,3-trifluoro-2-hydroxypropyl]-4,5-dihydro-1H-1,2,4-triazol-1-yl}methyl)-1H-1,2,4-triazol-1-yl]-N-ethyl-N-(propan-2-yl)benzamide] | 740 nM | 4.7 nM | 157.4 |  |
| Cc1n[nH]c(C)c1NC(=O)c1ccccc1-n1cnc(Cn2nc(-c3ccc(Cl)cc3)n(C[C@H](O)C(F)(F)F)c2=O)n1 [Example 214, 2-[3-({3-(4-Chlorophenyl)-5-oxo-4-[(2S)-3,3,3-trifluoro-2-hydroxypropyl]-4,5-dihydro-1H-1,2,4-triazol-1-yl}methyl)-1H-1,2,4-triazol-1-yl]-N-(3,5-dimethyl-1H-pyrazol-4-yl)benzamide] | 1410 nM | 1.65 nM | 854.5 |  |
| COC(C)(C)C(=O)Nc1ncccc1-n1cnc(Cn2nc(-c3ccc(Cl)cc3)n(C[C@H](O)C(F)(F)F)c2=O)n1 [Example 137] | 1350 nM | 146 nM | 9.2 |  |
| O=C(NC1CC1)c1ccccc1-n1cnc(Cn2nc(-c3ccc(Cl)cc3)n(C[C@H](O)C(F)(F)F)c2=O)n1 [Example 340, 2-[3-({3-(4-Chlorophenyl)-5-oxo-4-[(2S)-3,3,3-trifluoro-2-hydroxypropyl]-4,5-dihydro-1H-1,2,4-triazol-1-yl}methyl)-1H-1,2,4-triazol-1-yl]-N-cyclopropylbenzamide] | 390 nM | 8.5 nM | 45.9 |  |
| O=C(O)CCNc1ccncc1-n1cnc(Cn2nc(-c3ccc(Cl)cc3)n(C[C@H](O)C(F)(F)F)c2=O)n1 [Example 20, N-{3-[3-({3-(4-Chlorophenyl)-5-oxo-4-[(2S)-3,3,3-trifluoro-2-hydroxypropyl]-4,5-dihydro-1H-1,2,4-triazol-1-yl}methyl)-1H-1,2,4-triazol-1-yl]pyridin-4-yl}-beta-alanine] | 5920 nM | 4350 nM | 1.4 |  |
| Cc1c(F)cccc1NC(=O)c1ccccc1-n1cnc(Cn2nc(-c3ccc(Cl)cc3)n(C[C@H](O)C(F)(F)F)c2=O)n1 [Example 306, 2-[3-({3-(4-Chlorophenyl)-5-oxo-4-[(2S)-3,3,3-trifluoro-2-hydroxypropyl]-4,5-dihydro-1H-1,2,4-triazol-1-yl}methyl)-1H-1,2,4-triazol-1-yl]-N-(3-fluoro-2-methylphenyl)benzamide] | 124 nM | 1.6 nM | 77.2 |  |
| O=C(c1ccccc1-n1cnc(Cn2nc(-c3ccc(Cl)cc3)n(C[C@H](O)C(F)(F)F)c2=O)n1)N1C[C@@H]2C[C@H]1CO2 [Example 262, 5-(4-Chlorophenyl)-2-[(1-{2-[(1S,4S)-2-oxa-5-azabicyclo[2.2.1]hept-5-ylcarbonyl]phenyl}-1H-1,2,4-triazol-3-yl)methyl]-4-[(2S)-3,3,3-trifluoro-2-hydroxypropyl]-2,4-dihydro-3H-1,2,4-triazol-3-one] | 880 nM | 3.4 nM | 258.8 |  |
| CN(C)C(=O)c1ccccc1-n1cnc(Cn2nc(-c3ccc(Cl)cc3)n(C[C@H](O)C(F)(F)F)c2=O)n1 [Example 264, 2-[3-({3-(4-Chlorophenyl)-5-oxo-4-[(2S)-3,3,3-trifluoro-2-hydroxypropyl]-4,5-dihydro-1H-1,2,4-triazol-1-yl}methyl)-1H-1,2,4-triazol-1-yl]-N,N-dimethylbenzamide] | 1260 nM | 2.45 nM | 512.2 |  |
| NC(=O)C1(C(=O)Nc2ncccc2-n2cnc(Cn3nc(-c4ccc(Cl)cc4)n(C[C@H](O)C(F)(F)F)c3=O)n2)CC1 [Example 125] | 360 nM | 29.5 nM | 12.2 |  |

Continued by falling IC50 (human V1a receptor), values first:

| IC50 (human V2 receptor; 3 hours) | IC50 (human V1a receptor) | ratio IC50 hV2/hV1a (human V1a receptor) | IC50 (human V2 receptor) | SMILES |
| --- | --- | --- | --- | --- |
|  | 420 nM | 76.2 | 32000 nM | O=C(c1ncccc1-n1cnc(Cn2nc(-c3ccc(Cl)cc3)n(C[C@@H](O)C(F)(F)F)c2=O)n1)N1CCC(O)(C(F)(F)F)C1 (stereo partly drawn) [Example 468, 5-(4-Chlorophenyl)-2-{[1-(2-{[3-hydroxy-3-(trifluoromethyl)pyrrolidin-1-yl]carbonyl}pyridin-3-yl)-1H-1,2,4-triazol-3-yl]methyl}-4-[(2R)-3,3,3-trifluoro-2-hydroxypropyl]-2,4-dihydro-3H-1,2,4-triazol-3-one] |
|  | 210 nM | 25.2 | 5300 nM | O=C(NCC(F)(F)F)c1ncccc1-n1cnc(Cn2nc(-c3ccc(Cl)cc3)n(C[C@@H](O)C(F)(F)F)c2=O)n1 [Example 457, 3-[3-({3-(4-Chlorophenyl)-5-oxo-4-[(2R)-3,3,3-trifluoro-2-hydroxypropyl]-4,5-dihydro-1H-1,2,4-triazol-1-yl}methyl)-1H-1,2,4-triazol-1-yl]-N-(2,2,2-trifluoroethyl)pyridine-2-carboxamide] |
| 4000 nM | 95.5 nM | 41.9 |  | O=C(c1cccc(Cl)c1-n1cnc(Cn2nc(-c3ccc(Cl)cc3)n(C[C@H](O)C(F)(F)F)c2=O)n1)N1CCOC(C(F)(F)F)C1 (mixture of isomers) [Example 380, 5-(4-Chlorophenyl)-2-{[1-(2-chloro-6-{[2-(trifluoromethyl)morpholin-4-yl]carbonyl}phenyl)-1H-1,2,4-triazol-3-yl]methyl}-4-[(2S)-3,3,3-trifluoro-2-hydroxypropyl]-2,4-dihydro-3H-1,2,4-triazol-3-one] |
| 2400 nM | 54.5 nM | 44.0 |  | O=C(CC1CCCC1)Nc1ncccc1-n1cnc(Cn2nc(-c3ccc(Cl)cc3)n(C[C@H](O)C(F)(F)F)c2=O)n1 [Example 150] |
|  | 40.5 nM | 91.4 | 3700 nM | O=C(c1ncccc1-n1cnc(Cn2nc(-c3ccc(Cl)cc3)n(C[C@H](O)C(F)(F)F)c2=O)n1)N1CCC(F)(F)C1 [Example 437, 5-(4-Chlorophenyl)-2-[(1-{2-[(3,3-difluoropyrrolidin-1-yl)carbonyl]pyridin-3-yl}-1H-1,2,4-triazol-3-yl)methyl]-4-[(2S)-3,3,3-trifluoro-2-hydroxypropyl]-2,4-dihydro-3H-1,2,4-triazol-3-one] |
| 3100 nM | 28.5 nM | 108.8 |  | O=C(NCC1CS(=O)(=O)C1)c1ccccc1-n1cnc(Cn2nc(-c3ccc(Cl)cc3)n(C[C@H](O)C(F)(F)F)c2=O)n1 [Example 184, 2-[3-({3-(4-Chlorophenyl)-5-oxo-4-[(2S)-3,3,3-trifluoro-2-hydroxypropyl]-4,5-dihydro-1H-1,2,4-triazol-1-yl}methyl)-1H-1,2,4-triazol-1-yl]-N-[(1,1-dioxidothietan-3-yl)methyl]benzamide] |
|  | 26.5 nM | 18.5 | 490 nM | O=C(NCCC(F)(F)F)c1cccnc1-n1cnc(Cn2nc(-c3ccc(Cl)cc3)n(C[C@H](O)C(F)(F)F)c2=O)n1 [Example 497, 2-[3-({3-(4-chlorophenyl)-5-oxo-4-[(2S)-3,3,3-trifluoro-2-hydroxypropyl]-4,5-dihydro-1H-1,2,4-triazol-1-yl}methyl)-1H-1,2,4-triazol-1-yl]-N-(3,3,3-trifluoropropyl)pyridine-3-carboxamide] |
| 1670 nM | 18.3 nM | 90.8 |  | O=C(Nc1ccncc1-n1cnc(Cn2nc(-c3ccc(Cl)cc3)n(C[C@H](O)C(F)(F)F)c2=O)n1)C1CC(F)(F)C1 [Example 31, N-{3-[3-({3-(4-Chlorophenyl)-5-oxo-4-[(2S)-3,3,3-trifluoro-2-hydroxypropyl]-4,5-dihydro-1H-1,2,4-triazol-1-yl}methyl)-1H-1,2,4-triazol-1-yl]pyridin-4-yl}-3,3-difluorocyclobutanecarboxamide] |
| 1800 nM | 9 nM | 199.4 |  | O=C(NCCN1CCNC1=O)c1ccccc1-n1cnc(Cn2nc(-c3ccc(Cl)cc3)n(C[C@H](O)C(F)(F)F)c2=O)n1 [Example 185, 2-[3-({3-(4-Chlorophenyl)-5-oxo-4-[(2S)-3,3,3-trifluoro-2-hydroxypropyl]-4,5-dihydro-1H-1,2,4-triazol-1-yl}methyl)-1H-1,2,4-triazol-1-yl]-N-[2-(2-oxoimidazolidin-1-yl)ethyl]benzamide] |
